Literature values as cited in patent US20080153785A1, “Pharmaceutical Compositions Containing Biophosphonate for Improving Oral Absorption” (CHONG KUN DANG PHARMACEUTICAL CORP., priority 2005, published 2008).

Details: long-term treatment, normally taken

## NCCCC(O)(P(=O)(O)O)P(=O)(O)O [alendronate, 4-Amino-1-hydroxybutylidene-1,1-biphosphonate]
  incidence of heartburn or epigastric pain: about 36 % of patients
